Source: ChEMBL document CHEMBL2150973, “Dual inhibitors for aspartic proteases HIV-1 PR and renin: advancements in AIDS-hypertension-diabetes linkage via molecular dynamics, inhibition assays, and binding free energy calculations” (J Med Chem, 2012)

Tested on: Human immunodeficiency virus 1
Assay: microbe, parasite or virus in culture

IC90: 4.1 nM
SMILES: CC(C)CN(C[C@@H](O)[C@H](Cc1ccccc1)NC(=O)O[C@H]1CO[C@H]2OCC[C@H]21)S(=O)(=O)c1ccc(N)cc1
